The values that follow come from PubChem BioAssay (NCI).

Among the test systems are M14 melanoma; U251 CNS; MDA-N; SK-MEL-5 melanoma; A549 NSCLC; BT-549 breast; CAKI-1 renal; T-47D breast; HS 578T breast; EKVX NSCLC.
Experiment in all cases: NCI-60 cell line screen, 48 h

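Each compound was tested at five concentrations against cells in 96-well plates for 48 hours. GI50 is the concentration that inhibits growth by half. TGI: concentration producing complete growth inhibition.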

In the case of `Nc1nc2c(=O)c3ccccc3sc2s1`, the TGI in the assay on M14 melanoma, in the assay on U251 CNS, in the assay with MDA-N, with SK-MEL-5 melanoma, in the assay with A549 NSCLC and with BT-549 breast was greater than 100 µM in each case. Further, the TGI in the assay on CAKI-1 renal was 91.6 µM; with T-47D breast it was greater than 100 µM; with HS 578T breast, greater than 100 µM; in the assay with EKVX NSCLC it was greater than 100 µM.

For the molecule `Cc1ccc(C)n1-c1ccccc1C1SCCCS1`, the TGI in the assay with M14 melanoma, in the assay with U251 CNS, in the assay with MDA-N, in the assay on SK-MEL-5 melanoma, with A549 NSCLC and in the assay on BT-549 breast was greater than 100 µM each time. In addition, the TGI in the assay on CAKI-1 renal, with HS 578T breast and in the assay on EKVX NSCLC was greater than 100 µM each time.

Take `O=C(Cc1ccccc1)NCCc1ccc(O)c(O)c1`: the TGI in the assay on M14 melanoma was greater than 100 µM; with U251 CNS, greater than 100 µM; in the assay on MDA-N, 34.9 µM; with SK-MEL-5 melanoma, greater than 100 µM; with A549 NSCLC it was greater than 100 µM; in the assay with BT-549 breast it was greater than 100 µM. Further, the TGI in the assay with T-47D breast, with HS 578T breast and with EKVX NSCLC was greater than 100 µM throughout.

As for `O=C(O)[C@H]1[C@@H](C2CCCCC2)O[C@@H](C2CCCCC2)O[C@H]1C(F)(F)F`, the TGI was determined as 39.4 µM in the assay with M14 melanoma; 34.2 µM with U251 CNS; 30.7 µM with MDA-N; 44.4 µM in the assay on SK-MEL-5 melanoma; 42.4 µM in the assay with A549 NSCLC; 98.6 µM in the assay on BT-549 breast. Further, the TGI with CAKI-1 renal is 36.4 µM; in the assay on T-47D breast, greater than 100 µM; in the assay on HS 578T breast, 58.8 µM; with EKVX NSCLC, 43.1 µM.

For `CCCC(=O)O`, the TGI in the assay on M14 melanoma was greater than 18700 µM; in the assay with U251 CNS, greater than 18700 µM; in the assay with MDA-N it was greater than 18700 µM; with SK-MEL-5 melanoma, 6100 µM; in the assay with A549 NSCLC it was greater than 18700 µM; in the assay with BT-549 breast, greater than 18700 µM. In addition, the TGI with CAKI-1 renal is 12000 µM; in the assay with T-47D breast it was 9400 µM; in the assay with HS 578T breast, greater than 18700 µM; in the assay with EKVX NSCLC it was greater than 18700 µM. Further, the GI50 is 2410 µM in the assay with SK-MEL-5 melanoma and 4950 µM with HS 578T breast.

On to `O=C1Oc2ccccc2C(=O)/C1=C/N1C(=O)N/C(=C\c2ccccc2O)C1=O`, for which the TGI with M14 melanoma, with U251 CNS, in the assay with MDA-N, with SK-MEL-5 melanoma, in the assay with A549 NSCLC and with BT-549 breast was greater than 100 µM in each case. Besides, the TGI in the assay with CAKI-1 renal was greater than 100 µM; with T-47D breast it was greater than 85.5 µM; with HS 578T breast, greater than 100 µM; in the assay on EKVX NSCLC it was greater than 100 µM.

In the case of `CC1=NN(C(=O)CSc2nnc(SCC(=O)N3N=C(C)CC3(O)c3ccccc3)s2)C(O)(c2ccccc2)C1` (stereo unspecified), the TGI is 36.1 µM in the assay with M14 melanoma; greater than 100 µM in the assay on U251 CNS; greater than 100 µM in the assay on MDA-N; greater than 100 µM with SK-MEL-5 melanoma; greater than 100 µM in the assay with A549 NSCLC; 47 µM with BT-549 breast. Further, the TGI with CAKI-1 renal is greater than 100 µM; in the assay with HS 578T breast it was 70.2 µM; in the assay on EKVX NSCLC it was greater than 100 µM.

Consider `O=C1C2CCCCC2C(=O)N1n1c(Cc2ccc(Cl)cc2)n[nH]c1=O` (stereo unspecified), for which the TGI in the assay on M14 melanoma, in the assay with U251 CNS, in the assay on MDA-N, in the assay with SK-MEL-5 melanoma, with A549 NSCLC and in the assay on BT-549 breast was greater than 100 µM throughout. In addition, the TGI in the assay with CAKI-1 renal, with T-47D breast, with HS 578T breast and with EKVX NSCLC was greater than 100 µM in each case.

For the molecule `COC(=O)c1cn(CCCC(=O)O)nn1`, the TGI in the assay with U251 CNS, with MDA-N, with SK-MEL-5 melanoma, in the assay on A549 NSCLC, in the assay on BT-549 breast and in the assay on CAKI-1 renal was greater than 100 µM in each case. Also, the TGI in the assay on T-47D breast, in the assay with HS 578T breast and in the assay with EKVX NSCLC was greater than 100 µM throughout.

On to `O=c1cc(CNC2CCCC2)[nH]c(=O)[nH]1`, for which the TGI with M14 melanoma, in the assay with U251 CNS, in the assay with MDA-N, in the assay with SK-MEL-5 melanoma, in the assay with A549 NSCLC and with BT-549 breast was greater than 100 µM in each case. Further, the TGI with CAKI-1 renal, in the assay with T-47D breast, in the assay on HS 578T breast and in the assay with EKVX NSCLC was greater than 100 µM throughout.

In the case of `C=CCNC(=S)Nc1sc2c(c1C(=O)OCC)CC(C)CC2` (stereo unspecified), the TGI in the assay with M14 melanoma was 49.9 µM; in the assay on U251 CNS it was greater than 100 µM; with MDA-N it was greater than 100 µM; in the assay with SK-MEL-5 melanoma, 30.7 µM; with A549 NSCLC it was 60.8 µM; in the assay on BT-549 breast, greater than 100 µM. Further, the TGI with CAKI-1 renal is greater than 100 µM; in the assay on T-47D breast, 66.7 µM; in the assay on HS 578T breast it was greater than 100 µM; in the assay on EKVX NSCLC, 65.9 µM.

As for `C/C=C/[C@@]1(OC(=O)c2ccccc2)C[C@@H]2CCCC[C@@H]21`, the TGI was 32.3 µM in the assay with M14 melanoma; 29.8 µM in the assay on U251 CNS; 33.4 µM in the assay on MDA-N; 29.3 µM in the assay with SK-MEL-5 melanoma; 36.7 µM in the assay with A549 NSCLC; 28.2 µM with BT-549 breast. The TGI with CAKI-1 renal came out at 31.4 µM; with T-47D breast, 36.5 µM; with HS 578T breast, 27.2 µM; in the assay with EKVX NSCLC, 31.7 µM.

For the molecule `CCOC(=O)c1cn(-c2ccccc2)c(=S)n2c1nc1ccccc12`, the TGI in the assay on M14 melanoma was greater than 100 µM; with U251 CNS it was greater than 100 µM; with MDA-N it was greater than 100 µM; with SK-MEL-5 melanoma it was greater than 89.6 µM; with A549 NSCLC it was greater than 100 µM; in the assay with BT-549 breast, greater than 100 µM. Moreover, the TGI with CAKI-1 renal, in the assay on T-47D breast and in the assay with EKVX NSCLC was greater than 100 µM each time.

As for `CCOC(=O)CCCn1nnc(C(=O)OCC)c1C(=O)OCC`, the TGI in the assay on U251 CNS, in the assay on MDA-N, with SK-MEL-5 melanoma, with A549 NSCLC, with BT-549 breast and in the assay with CAKI-1 renal was greater than 100 µM throughout. Moreover, the TGI in the assay on T-47D breast, with HS 578T breast and in the assay with EKVX NSCLC was greater than 100 µM in each case.
